Consider nine compounds from PubChem BioAssay (NCI).

Some test systems named below: BT-549 breast; SK-MEL-5 melanoma; NCI-H23 lung; CCRF-CEM leukemia; CAKI-1 renal; COLO 205 colon; RXF 393 renal; HCT-15 colon; NCI-H522 lung; HL-60(TB) leukemia.
Common to all, as to test: NCI-60 cell line screen, 48 h

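96-well plates; 48 h exposure; 5 concentrations. Endpoints by linear interpolation between flanking doses. Not reached: highest tested concentration assigned. The concentration for 50% growth inhibition is given as GI50. TGI: concentration producing complete growth inhibition.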 A value given as a limit tells only on which side of the number the result lay.

With `[N-]=[N+]=NCCCn1c2c(c3ccc([N+](=O)[O-])cc3c1=O)C(=O)c1cc(Br)ccc1-2`, the GI50 in the experiment on BT-549 breast was above 100 µM; with SK-MEL-5 melanoma it was above 100 µM; with NCI-H23 lung, above 100 µM; in the experiment with CCRF-CEM leukemia it was 0.545 µM; in the experiment with CAKI-1 renal, 0.887 µM; in the experiment with COLO 205 colon, above 100 µM. For the same compound, the GI50 in the experiment with RXF 393 renal, in the experiment with HCT-15 colon and with NCI-H522 lung was above 100 µM each time. Besides, the TGI with BT-549 breast, in the experiment with SK-MEL-5 melanoma, in the experiment on NCI-H23 lung, in the experiment on CCRF-CEM leukemia, in the experiment on CAKI-1 renal and in the experiment with COLO 205 colon was above 100 µM in each case. The TGI in the experiment on RXF 393 renal, with HCT-15 colon and in the experiment on NCI-H522 lung was above 100 µM each time.
For `C=C1C(O)C2CC(C)(CO)C(=O)C2=C(CC(C)C)C12CC2` (stereo not drawn), the GI50 with BT-549 breast is above 100 µM; in the experiment on SK-MEL-5 melanoma, 82.8 µM; with NCI-H23 lung, above 100 µM; in the experiment with CCRF-CEM leukemia, 58 µM; in the experiment with CAKI-1 renal, 69.6 µM; in the experiment with COLO 205 colon, above 100 µM. Also, the GI50 in the experiment on RXF 393 renal is above 100 µM; with HCT-15 colon it was 82.3 µM; in the experiment on NCI-H522 lung it was 68.4 µM. Also, the TGI with BT-549 breast, in the experiment with SK-MEL-5 melanoma, with NCI-H23 lung, in the experiment with CCRF-CEM leukemia, in the experiment on CAKI-1 renal and in the experiment on COLO 205 colon was above 100 µM in each case. The TGI with RXF 393 renal, in the experiment with HCT-15 colon and in the experiment on NCI-H522 lung was above 100 µM throughout.
On to `COC(=O)Nc1nc2ccccc2[nH]1`, for which the TGI in the experiment with BT-549 breast was above 100 µM; in the experiment with SK-MEL-5 melanoma, above 100 µM; in the experiment on NCI-H23 lung, above 56.2 µM; in the experiment with CCRF-CEM leukemia, above 100 µM; with CAKI-1 renal, above 100 µM; with HL-60(TB) leukemia, above 31.2 µM. The TGI in the experiment on COLO 205 colon, in the experiment on RXF 393 renal and in the experiment on HCT-15 colon was above 100 µM throughout.
Take `COc1ccc(C(=O)c2cc(C)c(OC)c(C)c2)c(OC)c1NC(C)=O`: the GI50 in the experiment on BT-549 breast was 0.258 µM; with SK-MEL-5 melanoma it was 0.364 µM; with NCI-H23 lung, 0.369 µM; with CCRF-CEM leukemia, 2.4 µM; with CAKI-1 renal it was 0.0639 µM; in the experiment on HL-60(TB) leukemia, 0.309 µM. Moreover, the figures for the GI50 in the experiment with COLO 205 colon, in the experiment with HCT-15 colon and in the experiment with NCI-H522 lung were 0.299 µM, 0.452 µM and 0.157 µM, respectively. In addition, the TGI is above 100 µM with BT-549 breast; 7.15 µM in the experiment with SK-MEL-5 melanoma; above 100 µM in the experiment on NCI-H23 lung; above 100 µM in the experiment on CCRF-CEM leukemia; above 100 µM in the experiment on CAKI-1 renal; 1.37 µM with HL-60(TB) leukemia. Besides, the TGI in the experiment on COLO 205 colon is 1.28 µM; with HCT-15 colon, above 100 µM.
For the compound `COc1ccc(-c2ccc(/C=N/n3c(COc4ccccc4Cl)nn(CN4CCOCC4)c3=S)o2)c([N+](=O)[O-])c1`, the GI50 is 14.3 µM with BT-549 breast; 22.9 µM in the experiment with NCI-H23 lung; 18.7 µM in the experiment on CCRF-CEM leukemia; 21.3 µM in the experiment with CAKI-1 renal; 17 µM with HL-60(TB) leukemia; 36.6 µM with COLO 205 colon. In addition, the GI50 is 22.3 µM in the experiment with RXF 393 renal, 28.2 µM in the experiment with HCT-15 colon and 38.9 µM with NCI-H522 lung. Moreover, the TGI in the experiment on BT-549 breast was 40.7 µM; with NCI-H23 lung, 62.7 µM; with CCRF-CEM leukemia, 47.9 µM; with CAKI-1 renal it was 56.3 µM; with HL-60(TB) leukemia it was 39 µM; in the experiment on COLO 205 colon it was above 100 µM. Also, the TGI in the experiment on RXF 393 renal is 61.6 µM; in the experiment with HCT-15 colon it was above 100 µM; in the experiment on NCI-H522 lung, above 100 µM.
As for `O=C(CN(/C=C/C(=O)C(F)(F)F)c1ccc(Cl)cc1)c1ccc(Cl)c(Cl)c1`, the GI50 in the experiment with BT-549 breast is 16.7 µM; in the experiment with SK-MEL-5 melanoma it was 5.33 µM; with NCI-H23 lung it was 6.1 µM; in the experiment on CCRF-CEM leukemia, 3.41 µM; with CAKI-1 renal, 3.61 µM; with COLO 205 colon, 14.2 µM. The GI50 was 14.1 µM in the experiment with RXF 393 renal, 4.24 µM with HCT-15 colon and 2.88 µM in the experiment with NCI-H522 lung. Besides, the TGI amounted to 33.3 µM in the experiment with BT-549 breast; 20 µM in the experiment on SK-MEL-5 melanoma; 19.2 µM with NCI-H23 lung; 11 µM in the experiment with CCRF-CEM leukemia; 12.7 µM with CAKI-1 renal; 39.4 µM with COLO 205 colon. The TGI came to 36.1 µM in the experiment on RXF 393 renal, 17.2 µM in the experiment with HCT-15 colon and 8.81 µM with NCI-H522 lung.
Take `Cc1ccc(-c2nc(/C=N/Nc3cc(C)nc4ccc(Cl)cc34)c(C)o2)cc1`: the GI50 with BT-549 breast was 1.72 µM; with SK-MEL-5 melanoma, 1.76 µM; with NCI-H23 lung it was 2.17 µM; in the experiment on CCRF-CEM leukemia, 1.61 µM; in the experiment with CAKI-1 renal, 1.74 µM; in the experiment on HL-60(TB) leukemia, 1.12 µM. Also, the GI50 was 1.76 µM in the experiment with COLO 205 colon, 1.45 µM with RXF 393 renal and 0.549 µM with HCT-15 colon. Besides, the TGI is 3.27 µM in the experiment with BT-549 breast; 3.15 µM in the experiment with SK-MEL-5 melanoma; 4.48 µM in the experiment with NCI-H23 lung; 4.81 µM in the experiment with CCRF-CEM leukemia; 3.19 µM in the experiment on CAKI-1 renal; 2.97 µM in the experiment on HL-60(TB) leukemia. Besides, the TGI in the experiment on COLO 205 colon was 3.57 µM; with RXF 393 renal, 2.94 µM; with HCT-15 colon, 2.08 µM.
For `C#C[C@@]1(O)[C@@H](CO)O[C@@H](n2cc(I)c3c(N)ncnc32)[C@@H]1O`, the GI50 in the experiment on BT-549 breast is 0.259 µM; in the experiment with SK-MEL-5 melanoma, 0.209 µM; in the experiment with NCI-H23 lung, 0.327 µM; in the experiment on CCRF-CEM leukemia it was 0.271 µM; in the experiment on HL-60(TB) leukemia, 0.0462 µM; with COLO 205 colon, 0.0874 µM. Further, the GI50 with RXF 393 renal is 0.44 µM; in the experiment with HCT-15 colon, 0.137 µM; in the experiment with NCI-H522 lung it was 0.0993 µM. For the same compound, the TGI in the experiment with BT-549 breast is 4.01 µM; in the experiment with SK-MEL-5 melanoma, 3.3 µM; in the experiment on NCI-H23 lung it was 6.48 µM; in the experiment on CCRF-CEM leukemia, above 100 µM; with HL-60(TB) leukemia, 0.262 µM; in the experiment with COLO 205 colon, 0.706 µM. For the same compound, the TGI in the experiment on RXF 393 renal is 2.26 µM; in the experiment on HCT-15 colon it was above 100 µM; in the experiment with NCI-H522 lung, 0.6 µM.
Consider `O=[N+]([O-])c1ccc(Cl)c(CNc2ncnc3c2ncn3C2CCCCO2)c1` (stereo not drawn), for which the TGI was above 100 µM with BT-549 breast; 52.3 µM in the experiment with SK-MEL-5 melanoma; above 100 µM in the experiment with NCI-H23 lung; above 100 µM with CAKI-1 renal; 73.2 µM in the experiment on HL-60(TB) leukemia; above 100 µM in the experiment on COLO 205 colon. The results for the TGI in the experiment with RXF 393 renal, in the experiment on HCT-15 colon and in the experiment with NCI-H522 lung were 42.6 µM, above 100 µM and above 100 µM, respectively.
